Where “and” joins values, the source holds several entries; their conditions need not be identical. Equal entries are not always repeated. Records with an inconclusive call do not appear.
Test system: CD8F1 mice, subcutaneous mammary adenocarcinoma, T/C%
Test: NCI In Vivo Anticancer Drug Screen. Data for tumor model Mammary Adenocarcinoma CD8F1 (subcutaneous) in CD8F1
Settings: higher = larger tumour
Procedure, shortened: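 Transplantable tumors were established in mice, animals were dosed with compound or vehicle, and survival or tumor size was then measured in both groups. The treated result was divided by the control result.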

[1] = endpoint: median tumor weight change, dose: 62.5 mg/kg/injection, schedule: Q01DX001 (ip), vehicle: saline with Tween-80
[2] = endpoint: median tumor weight change, dose: 125.0 mg/kg/injection, schedule: Q01DX001 (ip), vehicle: saline with Tween-80
[3] = endpoint: median tumor weight change, dose: 250.0 mg/kg/injection, schedule: Q01DX001 (ip), vehicle: saline with Tween-80
[4] = endpoint: median tumor weight (est.), dose: 2.0 mg/kg/injection, schedule: Q07DX005 (ip), vehicle: saline
[5] = endpoint: median tumor weight (est.), dose: 4.0 mg/kg/injection, schedule: Q07DX005 (ip), vehicle: saline
[6] = endpoint: median tumor weight (est.), dose: 16.0 mg/kg/injection, schedule: Q07DX005 (ip), vehicle: saline
[7] = endpoint: median tumor weight change, dose: 125.0 mg/kg/injection, schedule: Q01DX001 (ip), vehicle: Klucel (hydroxypropylcellulose) (HPC)
[8] = endpoint: median tumor weight change, dose: 500.0 mg/kg/injection, schedule: Q01DX001 (ip), vehicle: saline with Tween-80

## CCN(CC)CCNc1ccc(C)c2sc3ccccc3c(=O)c12
endpoint: median tumor weight (est.), dose: 12.5 mg/kg/injection, schedule: Q07DX005 (ip), vehicle: saline
  T/C: 156 % of control
endpoint: median tumor weight (est.), dose: 25.0 mg/kg/injection, schedule: Q07DX005 (ip), vehicle: saline
  T/C: 198 % of control
endpoint: median tumor weight (est.), dose: 50.0 mg/kg/injection, schedule: Q07DX005 (ip), vehicle: saline
  T/C: 166 % of control
endpoint: median tumor weight (est.), dose: 100.0 mg/kg/injection, schedule: Q07DX005 (ip), vehicle: saline
  T/C: 76 % of control
endpoint: median tumor weight (est.), dose: 200.0 mg/kg/injection, schedule: Q07DX005 (ip), vehicle: saline
  T/C: 42 % of control

## COc1cc2c(c(OC)c1OC)-c1c(cc3c(c1OC)OCO3)CC(C)C(C)(O)C2OC(=O)c1ccccc1 (centres undefined)
endpoint: median tumor weight change, dose: 31.0 mg/kg/injection, schedule: Q01DX001 (ip), vehicle: saline + Tween-80 + alcohol
  T/C: 93 % of control
endpoint: median tumor weight change, dose: 125.0 mg/kg/injection, schedule: Q01DX001 (ip), vehicle: saline + Tween-80 + alcohol
  T/C: 121 % of control
endpoint: median tumor weight change, dose: 250.0 mg/kg/injection, schedule: Q01DX001 (ip), vehicle: saline + Tween-80 + alcohol
  T/C: 95 % of control
endpoint: median tumor weight change, dose: 500.0 mg/kg/injection, schedule: Q01DX001 (ip), vehicle: saline + Tween-80 + alcohol
  T/C: 110 % of control
endpoint: median tumor weight change, dose: 900.0 mg/kg/injection, schedule: Q01DX001 (ip), vehicle: saline + alcohol
  T/C: 96 % of control
endpoint: median tumor weight change, dose: 1800.0 mg/kg/injection, schedule: Q01DX001 (ip), vehicle: saline + alcohol
  T/C: 124 % of control
endpoint: median tumor weight change, dose: 3600.0 mg/kg/injection, schedule: Q01DX001 (ip), vehicle: saline + alcohol
  T/C: 59 % of control

## ClCc1ccc2ccccc2n1
[1]
  T/C: 69 % of control
[2]
  T/C: 54 % of control
[3]
  T/C: 76 % of control

## CCSC(=O)N1c2ccc(OC)cc2C=CC1C#N (centres undefined)
endpoint: median tumor weight (est.), dose: 12.5 mg/kg/injection, schedule: Q07DX005 (ip), vehicle: saline with Tween-80
  T/C: 93 % of control
endpoint: median tumor weight (est.), dose: 25.0 mg/kg/injection, schedule: Q07DX005 (ip), vehicle: saline with Tween-80
  T/C: 93 % of control
endpoint: median tumor weight (est.), dose: 50.0 mg/kg/injection, schedule: Q07DX005 (ip), vehicle: saline with Tween-80
  T/C: 69 % of control
endpoint: median tumor weight (est.), dose: 100.0 mg/kg/injection, schedule: Q07DX005 (ip), vehicle: saline with Tween-80
  T/C: 90 % of control
endpoint: median tumor weight (est.), dose: 225.0 mg/kg/injection, schedule: Q07DX005 (ip), vehicle: saline with Tween-80
  T/C: 59 % of control
endpoint: median tumor weight (est.), dose: 400.0 mg/kg/injection, schedule: Q07DX005 (ip), vehicle: saline with Tween-80
  T/C: 97 % of control
endpoint: median tumor weight (est.), dose: 450.0 mg/kg/injection, schedule: Q07DX005 (ip), vehicle: saline with Tween-80
  T/C: 95 % of control
endpoint: median tumor weight (est.), dose: 900.0 mg/kg/injection, schedule: Q07DX005 (ip), vehicle: saline with Tween-80
  T/C: 78 % of control

## CC(C)CC(NC(=O)CF)C(=O)O (centres undefined)
endpoint: median tumor weight (est.), dose: 0.62 mg/kg/injection, schedule: Q07DX005 (ip), vehicle: saline
  T/C: 81 % of control
endpoint: median tumor weight (est.), dose: 2.5 mg/kg/injection, schedule: Q07DX005 (ip), vehicle: saline
  T/C: 39 % of control
endpoint: median tumor weight (est.), dose: 5.0 mg/kg/injection, schedule: Q07DX005 (ip), vehicle: saline
  T/C: 99 % of control
endpoint: median tumor weight (est.), dose: 10.0 mg/kg/injection, schedule: Q07DX005 (ip), vehicle: saline
  T/C: 41 % of control

## COc1cc([C@@H]2c3cc4c(c(O)c3C[C@H]3COC(=O)[C@@H]32)OCO4)cc(OC)c1OC
[4]
  T/C: 45 % of control
[5]
  T/C: 222 % of control
endpoint: median tumor weight (est.), dose: 8.0 mg/kg/injection, schedule: Q07DX005 (ip), vehicle: saline
  T/C: 86 % of control
[6]
  T/C: 96 % of control

## Nc1nncs1
endpoint: median tumor weight (est.), dose: 25.0 mg/kg/injection, schedule: Q07DX005 (ip), vehicle: Klucel (hydroxypropylcellulose) (HPC)
  T/C: 72 % of control and 85 % of control
endpoint: median tumor weight (est.), dose: 50.0 mg/kg/injection, schedule: Q07DX005 (ip), vehicle: Klucel (hydroxypropylcellulose) (HPC)
  T/C: 44 % of control and 62 % of control
endpoint: median tumor weight (est.), dose: 100.0 mg/kg/injection, schedule: Q07DX005 (ip), vehicle: Klucel (hydroxypropylcellulose) (HPC)
  T/C: 34 % of control
endpoint: median tumor weight (est.), dose: 400.0 mg/kg/injection, schedule: Q07DX005 (ip), vehicle: Klucel (hydroxypropylcellulose) (HPC)
  T/C: 24 % of control and 49 % of control

## N/C(=N\OC(=O)Nc1ccc(CSc2ccc(Cl)cc2)o1)c1ccccn1
endpoint: median tumor weight change, dose: 62.0 mg/kg/injection, schedule: Q01DX001 (ip), vehicle: Klucel (hydroxypropylcellulose) (HPC)
  T/C: 64 % of control
[7]
  T/C: 99 % of control
endpoint: median tumor weight change, dose: 250.0 mg/kg/injection, schedule: Q01DX001 (ip), vehicle: Klucel (hydroxypropylcellulose) (HPC)
  T/C: 80 % of control

## C=C(C)[C@H]1CN[C@H](C(=O)O)[C@H]1CC(=O)O
endpoint: median tumor weight change, dose: 3.12 mg/kg/injection, schedule: Q01DX001 (ip), vehicle: saline
  T/C: 99 % of control
endpoint: median tumor weight change, dose: 6.25 mg/kg/injection, schedule: Q01DX001 (ip), vehicle: saline
  T/C: 77 % of control
endpoint: median tumor weight change, dose: 12.5 mg/kg/injection, schedule: Q01DX001 (ip), vehicle: saline
  T/C: 77 % of control
endpoint: median tumor weight change, dose: 25.0 mg/kg/injection, schedule: Q01DX001 (ip), vehicle: saline
  T/C: 73 % of control

## CC(=O)Oc1c[nH]c(=O)[nH]c1=O
[2]
  T/C: 62 % of control
[3]
  T/C: 84 % of control
[8]
  T/C: 32 % of control
endpoint: median tumor weight change, dose: 1000.0 mg/kg/injection, schedule: Q01DX001 (ip), vehicle: saline with Tween-80
  T/C: 32 % of control

## Nc1ncnc2c1ncn2C1C=C(CO)C(O)C1O (centres undefined)
endpoint: median tumor weight change, dose: 2.5 mg/kg/injection, schedule: Q01DX001 (ip), vehicle: saline
  T/C: 63 % of control
endpoint: median tumor weight change, dose: 2.5 mg/kg/injection, schedule: Q01DX001 (ip), vehicle: suspension in saline
  T/C: 113 % of control
endpoint: median tumor weight change, dose: 5.0 mg/kg/injection, schedule: Q01DX001 (ip), vehicle: saline
  T/C: 107 % of control
endpoint: median tumor weight change, dose: 5.0 mg/kg/injection, schedule: Q01DX001 (ip), vehicle: suspension in saline
  T/C: 115 % of control
endpoint: median tumor weight change, dose: 10.0 mg/kg/injection, schedule: Q01DX001 (ip), vehicle: saline
  T/C: 100 % of control
endpoint: median tumor weight change, dose: 20.0 mg/kg/injection, schedule: Q01DX001 (ip), vehicle: saline
  T/C: 86 % of control
endpoint: median tumor weight change, dose: 20.0 mg/kg/injection, schedule: Q01DX001 (ip), vehicle: suspension in saline
  T/C: 39 % of control
endpoint: median tumor weight change, dose: 40.0 mg/kg/injection, schedule: Q01DX001 (ip), vehicle: saline
  T/C: 40 % of control

## CN(CCN(C)C(=O)CCOS(C)(=O)=O)C(=O)CCOS(C)(=O)=O
endpoint: median tumor weight change, dose: 62.0 mg/kg/injection, schedule: Q01DX001 (ip), vehicle: saline
  T/C: 67 % of control
[1]
  T/C: 43 % of control
endpoint: median tumor weight change, dose: 62.5 mg/kg/injection, schedule: Q01DX001 (ip), vehicle: suspension in saline
  T/C: 39 % of control
[2]
  T/C: 15 % of control
endpoint: median tumor weight change, dose: 125.0 mg/kg/injection, schedule: Q01DX001 (ip), vehicle: saline
  T/C: 3 % of control
endpoint: median tumor weight change, dose: 125.0 mg/kg/injection, schedule: Q01DX001 (ip), vehicle: suspension in saline
  T/C: 10 % of control
endpoint: median tumor weight change, dose: 250.0 mg/kg/injection, schedule: Q01DX001 (ip), vehicle: saline
  T/C: 51 % of control
[8]
  T/C: -17 % of control

## COc1nc(C(Cl)(Cl)Cl)c(Cl)c(OC)c1Cl
endpoint: median tumor weight change, dose: 60.0 mg/kg/injection, schedule: Q01DX005 (ip), vehicle: Klucel (hydroxypropylcellulose) (HPC)
  T/C: 32 % of control
endpoint: median tumor weight change, dose: 62.5 mg/kg/injection, schedule: Q01DX001 (ip), vehicle: Klucel (hydroxypropylcellulose) (HPC)
  T/C: 174 % of control
[7]
  T/C: 81 % of control and 95 % of control
endpoint: median tumor weight change, dose: 200.0 mg/kg/injection, schedule: Q01DX005 (ip), vehicle: Klucel (hydroxypropylcellulose) (HPC)
  T/C: -15 % of control

## C[CH2][Ge]1([CH2]C)[CH2]CC2(CCN(CCCN(C)C)C2)C[CH2]1
endpoint: mean tumor weight, dose: 25.0 mg/kg/injection, schedule: Q04DX009 (ip), vehicle: saline
  T/C: 113 % of control
endpoint: mean tumor weight, dose: 50.0 mg/kg/injection, schedule: Q04DX009 (ip), vehicle: saline
  T/C: 87 % of control
endpoint: mean tumor weight, dose: 100.0 mg/kg/injection, schedule: Q04DX009 (ip), vehicle: saline
  T/C: 40 % of control
[4]
  T/C: 67 % of control
[5]
  T/C: 57 % of control
[6]
  T/C: 74 % of control
endpoint: median tumor weight (est.), dose: 32.0 mg/kg/injection, schedule: Q07DX005 (ip), vehicle: saline
  T/C: 55 % of control and 68 % of control
endpoint: median tumor weight (est.), dose: 64.0 mg/kg/injection, schedule: Q07DX005 (ip), vehicle: saline
  T/C: 67 % of control and 77 % of control

Source: PubChem BioAssay AID220 (DTP/NCI, 2004)
